Source: paper PMC12077799, “Fragment-based drug discovery for transthyretin kinetic stabilisers using a novel capillary zone electrophoresis method” (PLOS One, 2025)
Like-named read-outs stand apart in the source and are kept apart here.

Assays:
[1] = molecular target: T1, Human transthyretin (TTR) thyroxine binding sites (Homo sapiens, UniProt P02766); assay: TTR CZE Free Probe Peak Height Restoration (FPPHR) assay, 8-ANS displacement; settings: for FPPHR % at 50 μM: compound 50 μM in Running Buffer; for FPPHR % at 50 μM / FPPHR % tested at 10 µM / FPPHR % at 100 μM: 10% minimum for a binder; for FPPHR % tested at 10 µM: compound 10 µM in Running Buffer; for change of free 8-ANS peak height with compound in the Running Buffer: in words, concentrations (e.g. Tafamidis 10 µM, Diphenylamine 250 μM, Verapamil 300 µM, Acetazolamide 500 µM); for FPPHR % at 100 μM: compound 100 μM in Running Buffer
T1 construct: purchased SCIPAC (Sittingbourne, Kent, UK) P171-1
Method: CZE assays development and fragment screening were performed on a Beckman P/ACE MDQ capillary electrophoresis system (Beckman Coulter Inc., Brea, CA) operated by 32 Karat™ software. All capillaries (Polymicro Technologies, Phoenix, AZ) used were internally coated with polyvinyl alcohol and of around 30 cm in length, 75 microns in internal diameter. Capillary temperature was maintained at 20 °C by recirculating fluorinated fluid coolant during electrophoresis. Sample trays and buffer trays temperature were maintained at 4°C and ambient respectively. For every electrophoretic run, the capillary was pressure rinsed and prefilled with electrophoresis buffer also known as background electrolyte (termed as Running Buffer hereafter) before injection. After each electrophoretic run, the capillary was rinsed with Running Buffer and H2O by pressure (20 psi for 1 minute). Three Running Buffers (RB), A: 20 mM Tris pH 7.5, 1 mM KCl, 1.62 mM NaCl; B: 20 mM HEPES pH 7.0, 2 mM CaCl2 and C: 20 mM HEPES pH 7.0, 2 mM CaCl2, 1% DMSO were used. All CE traces were analysed by 32Karat™ Software with a built-in automatic peak integration algorithm.
Control 1 Inject Buffer (IB) containing 30 μM 8-ANS was prepared by mixing 1 μL of 3 mM 8-ANS DMSO stock with 99 μL of Running Buffer B in a 0.2 mL PCR tube. Control 2 Inject Buffer was prepared by mixing 1μL of 3 mM 8-ANS DMSO stock with 20 μL of 100 μM tetrameric TTR stock in Running Buffer B and 79 μL of Running Buffer B. The final concentrations (f/c) were 8-ANS 30 μM, TTR 20 μM and 1% DMSO v/v.
The maximum Free Probe Peak Height (Control 1 Peak Height) was determined by Outlet Injection (see Fig 1) of Control 1 with an injection pressure of 0.5 psi for 5 seconds (equivalent to ≈ 20–30 nL). An identical injection of Control 2 provides the minimum Free Probe Peak Height (Control 2 Peak Height) enabling calculation of % of bound and unbound, i.e., free 8-ANS. To determine the 8-ANS peak height in Control 1 and Control 2, the capillary was prefilled with Buffer C and electrophoresis carried out at 10 kV (Normal Polarity, Fig 1) with UV monitoring at 230 nm. For displacement analysis, ligand DMSO stock was diluted in Buffer B and used to fill the capillary as the Running Buffer. Electrophoresis commenced after injection of Control 2, thus the injected 8-ANS-TTR complex migrates inside a capillary filled with the test ligand. The observed 8-ANS peak height is defined as Sample Peak Height and the displaced 8-ANS can be calculated as:
\% of Free Probe Peak Height Restoration= Sample Peak Height−Control 2 Peak Height/Control 1 Peak Height−Control 2 Peak Height

TTR = molecular target: T2, TTR (Homo sapiens, UniProt P02766); assay: Isothermal titration calorimetry (ITC); format: binding; settings: for Kd: 25 °C, PBS pH 7.8, 3% DMSO
T2 construct: purchased SCIPAC (Sittingbourne, Kent, UK) P171-1
Method: All ITC experiments were conducted on an iTC200 calorimeter (GE Healthcare), and the settings were 25 °C, stir at 1000 RPM, 1–2 μL injection spaced with 100–150 seconds, reference power: 6 μcal/sec. Isotherms were fitted using ORIGIN 7 software (OriginLab, MA, USA). To prepare TTR ITC protein solution (5 mL), purified and freeze-dried human TTR was weighted and dissolved in 310 μL of pure water. The reconstituted protein solution was then desalted by spin column (Bio-Rad, Bio-Gel P6) and the eluted volume was transferred to a 15mL falcon tube. The protein solution was further diluted with 10x Phosphate Buffered Saline (PBS, 500 μL), DMSO (150 μL) and water, (f/c: 4.3 mM Na2HPO4, 137 mM NaCl, 2.7 mM KCl, 1.47 mM KH2PO4, 3% DMSO v/v, TTR 19.35–25 μM, pH 7.8). UV A260/280 was measured to obtain the actual protein concentration using a calculated extinction coefficient of 18450 M^-1 cm^-1. To prepare ligand ITC solution (1 mL), 30 μL of ligand stock in DMSO was diluted with 10x PBS (100 μL) and water (f/c: 4.3 mM Na2HPO4, 137 mM NaCl, 2.7 mM KCl, 1.47 mM KH2PO4, 3% DMSO v/v, Ligand 280–600 μM, pH 7.8).

[2] = molecular target: T3, TTR in undiluted normal human reference plasma (Homo sapiens, UniProt P02766); assay: 125I-T4 displacement assay in neat normal human plasma; format: binding; settings: for IC50: neat normal human plasma, 4-parameter logistic fit
T3 construct: The TTR in plasma was immunoprecipitated by sheep anti-human prealbumin polyclonal antibody; tissue Precision Biologic Inc., Nova Scotia, Canada
From the text: The assay was adapted from one described previously. Briefly, test ligand and ^125I-T4 (Perkin Elmer Inc., Waltham, MA) were mixed with undiluted normal human reference plasma (Precision Biologic Inc., Nova Scotia, Canada). The TTR in plasma was immunoprecipitated by sheep anti-human prealbumin polyclonal antibody (The Binding Site Group Ltd., Birmingham, UK). The immunoprecipitate was washed with buffer and their radioactivity measured with a 2470 WIZARD automatic gamma counter (Perkin Elmer Inc., Waltham, MA). […] Percentage of total radioligand binding for samples of different ligand concentration was then calculated as follows: […]
To calculate IC50 values, percentage of total radioligand binding at different concentration points were entered in SigmaPlot™ 11.0. Titration curves were done in triplicates with a minimum of 5 data points fitted by 4-Parameter Logistic Function.

[3] = molecular target: T4, Human transthyretin (TTR) (Homo sapiens, UniProt P02766); assay: Co-crystallisation of TTR-ligand complex, X-ray hit confirmation; format: binding; settings: for Confirmed by X-ray: fragment seen in ligand-omitted difference density at >= 2σ in one or both binding sites, full or partial density; for ligand electron density, binding sites occupied in co-crystal structure: in words
T4 construct: purchased SCIPAC (Sittingbourne, Kent, UK) P171-1
Method: Crystals were grown by vapor diffusion using a published crystallisation cocktail (100 mM HEPES pH 7.5, 200 mM CaCl2, 28% v/v PEG400) at 21 °C [29]. The hanging drop contained 1 μL of crystallisation cocktail, 1 μL of diluted ligand and 1 μL of TTR protein solution (85 μM). […] Crystals were harvested and flash cooled in a N2 cryostream or dipped into liquid ethane without cryoprotectant. Data was collected at Diamond Light Source (Oxon, UK) beamline I24, I04 or I04-1 (Pilatus 6M or ADSC Q315) or the European Synchrotron Radiation Facility (ESRF, Grenoble, France) beamline ID29 (Pilatus 6M-F) or in-house (Bruker X8 Diffractometer with APEXII CCD detector). Crystal unit cell was initially indexed by software MOSFLM [30] and LABELIT [31] within the EDNA [32] automatic data processing workflow. Diffraction image integration was performed by XDS [33] and reflection intensities were scaled by SCALA [34] or by PROTEUM2 if collected in-house. Phases were obtained by molecular replacement method using PHASER [35], 1DVQ from the Protein Data Bank (PDB) was used as the search model. Atomic positions of the initial model were refined by REFMAC5 [36]. Model building and ligand fitting was completed using COOT [37]. Model graphics were generated using CCP4MG [38]. Crystallographic statistics of all structures can be found in S4 Table.

[4] = N = number of non-hydrogen atoms
[5] = read-out: Mean 125I-T4 IC50 ± SD (N = 3)

## c1cc2cc[nH]c2cn1 [Compound A00010944]
[1]
  FPPHR % at 50 μM: 3.73%

## Cc1n[nH]c(Cl)c1-c1cccc2cccnc12 [SEL101928]
TTR; read-out: ITC Kd1 ± SD (N = 3)
  Kd: 49.7 nM
TTR; read-out: ITC Kd2 ± SD (N = 3)
  Kd: 331 nM
TTR; [4]
  Kd1 LE (Ligand Efficiency, ΔG/N): 0.59 kcal/mol
  Kd2 LE (Ligand Efficiency, ΔG/N): 0.52 kcal/mol
[2]; [5]
  IC50: 20.4 ± 4.13 µM

## c1cc2[nH]ccc2cn1 [Compound 218458]
[1]
  FPPHR % at 50 μM: 5.03%

## Nc1nc(-c2cccc3cccnc23)c2cn[nH]c2n1 [Compound 96299361]
[1]
  FPPHR % tested at 10 µM: 23.20% tested at 10 µM
[2]; [5]
  IC50: 105 ± 16.8 µM
[3]
  Confirmed by X-ray: Yes 9H7M

## c1cnc2[nH]ccc2c1 [Compound 242506]
[1]
  FPPHR % at 50 μM: 7.85%

## c1ccc(Nc2ccccc2)cc1 [Diphenylamine, reference compound]
[1]
  change of free 8-ANS peak height with compound in the Running Buffer: significant free 8-ANS peak height increase

## Nc1n[nH]c2nccc(-c3ccccc3)c12 [CDS014361]
[1]
  FPPHR % at 50 μM: 36.17% tested at 50 µM
[2]; [5]
  IC50: 100 ± 11 µM
[3]
  Confirmed by X-ray: Yes 9H7L

## Cc1n[nH]c(N)c1-c1ccccc1 [SFL001561]
[2]; [5]
  IC50: 488 ± 107 µM
[3]
  Confirmed by X-ray: Yes 9H7J

## CC(=O)Nc1nnc(S(N)(=O)=O)s1 [Acetazolamide, reference compound]
[1]
  change of free 8-ANS peak height with compound in the Running Buffer: changed minimally

## CN(C)Cc1c[nH]c2ncccc12 [SFL001519]
[1]
  FPPHR % at 50 μM: 1.88%

## Nc1[nH]ncc1-c1ccccc1 [OR1969]
[1]
  FPPHR % at 50 μM: 13.28%

## Cc1nn(C)c(N)c1-c1ccccc1 [SFL001562]
[1]
  FPPHR % at 50 μM: 7.42%

## Cc1n[nH]c(-c2ccnc3ccccc23)n1 [Compound 71575026]
[1]
  FPPHR % tested at 10 µM: 17.07% tested at 10 µM
[2]; [5]
  IC50: 238 ± 118 µM
[3]
  Confirmed by X-ray: Yes 9H7N

## Nc1cc(Cl)cc(Cl)c1 [3,5-Dichloroaniline, reference compound]
[1]
  change of free 8-ANS peak height with compound in the Running Buffer: significant free 8-ANS peak height increase
[2]
  IC50: 802 ± 319 µM
[2]; neat plasma, exemplary curve
  125I-T4 displacement at plateau: 60%
  total radioligand binding at plateau: around 40%
[3]
  ligand electron density, binding sites occupied in co-crystal structure: only observed in one site

## Clc1n[nH]c2ccccc12 [Compound A00014954]
[1]
  FPPHR % at 50 μM: 24.84%

## Clc1ccc2c(-c3cc[nH]n3)ccnc2c1 [Compound 63633004]
[1]
  FPPHR % tested at 10 µM: 22.71% tested at 10 µM

## c1ccc2[nH]ccc2c1 [SFL001004]
[1]
  FPPHR % at 100 μM: 17.18%

## Clc1cc2cc[nH]c2cn1 [Compound 217869]
[1]
  FPPHR % at 50 μM: 12.83%

## Nc1cc(Cl)c(O)c(Cl)c1 [4-Amino-2,6-Dichlorophenol, reference compound]
[1]
  change of free 8-ANS peak height with compound in the Running Buffer: significant free 8-ANS peak height increase

## COc1ccc(CCN(C)CCCC(C#N)(c2ccc(OC)c(OC)c2)C(C)C)cc1OC (stereo not drawn) [Verapamil, reference compound]
[1]
  change of free 8-ANS peak height with compound in the Running Buffer: changed minimally

## N[C@@H](Cc1cc(I)c(Oc2cc(I)c(O)c(I)c2)c(I)c1)C(=O)O [Thyroxine T4, reference compound]
[1]
  change of free 8-ANS peak height with compound in the Running Buffer: significant free 8-ANS peak height increase

## O=C(O)c1ccccc1Nc1ccccc1 [N-Phenylanthranilic Acid, reference compound]
[2]
  IC50: 180 ± 61.8 µM
[3]
  ligand electron density, binding sites occupied in co-crystal structure: occupied both sites

## Cc1[nH]ncc1-c1ccccc1 [Compound 12T-0222]
[1]
  FPPHR % at 50 μM: 25.63%

## c1ccc(-c2cn[nH]c2)cc1 [Compound Z1013760930]
[1]
  FPPHR % at 50 μM: 14.93%

## COC(=O)c1c[nH]c2ccccc12 [Compound A00010562]
[1]
  FPPHR % at 50 μM: 16.40%

## c1ccc2nc(-c3cn[nH]c3)ccc2c1 [SFL001536]
[1]
  FPPHR % at 100 μM: 18.42%

## O=C(O)c1ccc2nc(-c3cc(Cl)cc(Cl)c3)oc2c1 [Tafamidis, reference compound]
[1]
  change of free 8-ANS peak height with compound in the Running Buffer: significant free 8-ANS peak height increase

## c1ncc2[nH]cnc2n1 [SFL001639]
[1]
  FPPHR % at 100 μM: 5.29%

## N#Cc1c[nH]c2ccccc12 [SFL000013]
[1]
  FPPHR % at 50 μM: 18.13%
  FPPHR % at 100 μM: 21.53%
[1]; fragment 300 μM in Running Buffer, injected 30 μM 8-ANS / 20 μM TTR, hit cut-off 10%
  FPPHR % at 300 μM ± SD (N = 3): 23.08 ± 6.08%
[3]
  Confirmed by X-ray: Yes 2 Sites, Full, 9H7G

## Nc1ccccc1S(N)(=O)=O [2-Aminobenzenesulphonamide, reference compound]
[1]
  change of free 8-ANS peak height with compound in the Running Buffer: changed minimally

## N#Cc1ncnc2nc[nH]c12 [SFL001640]
[1]
  FPPHR % at 100 μM: 4.78%

## c1ccc2c(-c3nnc4cnccn34)ccnc2c1 [Compound 86471824]
[1]
  FPPHR % tested at 10 µM: 10.85% tested at 10 µM

## c1ccc2[nH]ncc2c1 [SFL000101]
[1]
  FPPHR % at 100 μM: 12.12%

## Nc1[nH]ncc1-c1ccc(Cl)cc1 [Compound 242212]
[1]
  FPPHR % at 50 μM: 25.65%

## c1cncc(-c2nc3ccccc3[nH]2)c1 [SFL001465]
[1]
  FPPHR % at 100 μM: 6.22%
